Among the test systems are SNB-19 CNS; SNB-78 CNS; COLO 205 colon; LOX IMVI melanoma; OVCAR-5 ovarian; DMS 273 small cell lung; SF-539 CNS; CCRF-CEM leukemia; MCF7 breast; MDA-MB-435; BT-549 breast.
Assay in all cases: inhibition of tumour cell growth, NCI panel, 48 h

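Each compound was tested at five concentrations against cells in 96-well plates for 48 hours. GI50 = concentration required for 50% inhibition of growth. The concentration for full growth arrest is given as TGI.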

Regarding `O=c1[nH]c(=O)n(C2CC(O)C(CO)O2)cc1C#Cc1ccc(F)cc1` (stereo unspecified), the TGI in the test with SNB-19 CNS, in the test with SNB-78 CNS, in the test with COLO 205 colon, in the test with LOX IMVI melanoma, in the test with OVCAR-5 ovarian and in the test with DMS 273 small cell lung was more than 100 µM in each case. The TGI in the test on SF-539 CNS and with CCRF-CEM leukemia was more than 100 µM throughout.
Consider `COc1ccc2[nH]c3c(C)cc([N+](=O)[O-])c(C)c3c2c1`, for which the TGI in the test on SNB-19 CNS is more than 100 µM; in the test on COLO 205 colon it was more than 100 µM; in the test with DMS 273 small cell lung it was 45.4 µM; in the test on SF-539 CNS it was more than 100 µM; in the test on CCRF-CEM leukemia it was 56.4 µM.
`OC12c3ccccc3C3CCC4(OCCO4)C3C1c1ccccc12` (stereo unspecified): the TGI in the test on SNB-19 CNS, in the test on SNB-78 CNS, with COLO 205 colon, in the test on LOX IMVI melanoma, in the test on OVCAR-5 ovarian and in the test on DMS 273 small cell lung was more than 100 µM throughout. Further, the TGI in the test with SF-539 CNS and in the test on CCRF-CEM leukemia was more than 100 µM throughout.
As to `CC(CN(C)C)C(=O)c1ccccc1` (stereo unspecified), the TGI was more than 100 µM with SNB-19 CNS; more than 64 µM with SNB-78 CNS; more than 67.5 µM in the test with COLO 205 colon; 31.7 µM in the test on LOX IMVI melanoma; 96.1 µM in the test with OVCAR-5 ovarian; more than 100 µM with DMS 273 small cell lung. The TGI in the test on SF-539 CNS was more than 100 µM; in the test on CCRF-CEM leukemia it was 27.2 µM.
`COc1ccc(C(=O)N/N=C/c2c(C)n(C)n(-c3ccccc3)c2=O)cc1`: the TGI in the test with SNB-19 CNS, with SNB-78 CNS, with COLO 205 colon, with LOX IMVI melanoma, in the test with DMS 273 small cell lung and with SF-539 CNS was more than 100 µM each time. Moreover, the TGI in the test on CCRF-CEM leukemia was more than 100 µM.
For the compound `O=C(OC/C=C1C=C(OC(=O)c2ccccc2)/C(=N/N(C(=O)c2ccccc2)c2ccccc2)O\1)c1ccccc1`, the TGI with SNB-19 CNS was found to be 23 µM; in the test with SNB-78 CNS it was 67.1 µM; with LOX IMVI melanoma, 14.1 µM; with OVCAR-5 ovarian, 29.5 µM; with DMS 273 small cell lung, 24.1 µM; with CCRF-CEM leukemia it was 2.1 µM. The GI50 in the test on OVCAR-5 ovarian is 15.9 µM.
As to `CCCN(CCC)c1c([N+](=O)[O-])cc(C(=O)N(CCO)CCO)cc1[N+](=O)[O-]`, the TGI in the test with SNB-78 CNS, with COLO 205 colon, with OVCAR-5 ovarian, in the test with DMS 273 small cell lung, with SF-539 CNS and in the test on CCRF-CEM leukemia was more than 100 µM in each case.
Turning to `CCOC(=O)C1([Se]c2ccccc2)CCCC1=O` (stereo unspecified), the TGI in the test with SNB-19 CNS was more than 100 µM; in the test on SNB-78 CNS, 54.9 µM; with COLO 205 colon, 30.8 µM; with LOX IMVI melanoma it was 26.7 µM; with OVCAR-5 ovarian, more than 100 µM; in the test on DMS 273 small cell lung, 28.5 µM. Moreover, the TGI in the test with SF-539 CNS amounted to 43.6 µM; in the test with CCRF-CEM leukemia, 56.8 µM.
For `COc1ccc2c(c1)c(=O)c1c(NCCN(C)C)ccc3nnn2c31`, the TGI came to 19.7 µM in the test on SNB-19 CNS; 21.8 µM with SNB-78 CNS; 10 µM with COLO 205 colon; 2.9 µM in the test on LOX IMVI melanoma; 19.6 µM in the test with OVCAR-5 ovarian; 15.9 µM with SF-539 CNS. For the same compound, the TGI in the test with CCRF-CEM leukemia stood at 10.3 µM.
Regarding `CCn1c2ccccc2c2ccc(C3C(C(=O)OC)=C(C)NC(C)=C3C(=O)OC)cc21`, the TGI with SNB-19 CNS, in the test on COLO 205 colon, with MCF7 breast, in the test with MDA-MB-435, with LOX IMVI melanoma and in the test with OVCAR-5 ovarian was more than 100 µM each time. For the same compound, the TGI in the test with SF-539 CNS, in the test with CCRF-CEM leukemia and in the test with BT-549 breast was more than 100 µM each time.
As to `O=C(Nc1cccc2ccccc12)c1ccccc1`, the TGI in the test with SNB-19 CNS, in the test on COLO 205 colon, in the test on MCF7 breast, in the test on MDA-MB-435, in the test on LOX IMVI melanoma and with OVCAR-5 ovarian was more than 100 µM each time. For the same compound, the TGI in the test on SF-539 CNS, in the test with CCRF-CEM leukemia and in the test with BT-549 breast was more than 100 µM throughout.
With `CO[C@@H]1C[C@H](OC(N)=O)[C@@H]2C=C[C@@H]3/C=C(C)/C=C/[C@@H](C)[C@H](/C(C)=C/[C@@H](C)NC(C)=O)OC(=O)/C=C/C=C(C)\C=C\[C@]3(C)[C@@H]2C1`, the TGI in the test with SNB-19 CNS stood at 10.2 µM; with COLO 205 colon, 0.514 µM; in the test on MCF7 breast, 17 µM; in the test with MDA-MB-435, 3.11 µM; with LOX IMVI melanoma, 0.00689 µM; in the test with OVCAR-5 ovarian, 3.63 µM. The TGI in the test with SF-539 CNS was found to be 0.0846 µM; with CCRF-CEM leukemia, 7.59 µM; with BT-549 breast, 12 µM.
With `Cc1ccc(O)c(C2=CC(c3cccc(Br)c3)SC(N)=N2)c1` (stereo unspecified), the TGI was 32.4 µM with SNB-19 CNS; 34.6 µM in the test with COLO 205 colon; more than 100 µM in the test with MCF7 breast; 37.2 µM in the test with MDA-MB-435; 34.7 µM in the test with LOX IMVI melanoma; 92.5 µM in the test with OVCAR-5 ovarian. The TGI was 50.3 µM with SF-539 CNS, 81.7 µM in the test with CCRF-CEM leukemia and 83.6 µM with BT-549 breast.
Consider `CSCCCNC(=O)c1csc(-c2csc(CCNC(=O)CNC(=O)CNC(=O)OC(C)(C)C)n2)n1`, for which the TGI with SNB-19 CNS, in the test on COLO 205 colon, in the test on MCF7 breast, in the test with MDA-MB-435, with LOX IMVI melanoma and in the test on OVCAR-5 ovarian was more than 100 µM in each case. In addition, the TGI in the test on SF-539 CNS, in the test on CCRF-CEM leukemia and in the test with BT-549 breast was more than 100 µM in each case.
As to `CC(=O)N(O)Cc1ccccc1`, the TGI with SNB-19 CNS, with SNB-78 CNS, with COLO 205 colon, with LOX IMVI melanoma, with OVCAR-5 ovarian and in the test on SF-539 CNS was more than 100 µM in each case. For the same compound, the TGI in the test on CCRF-CEM leukemia was more than 100 µM.
Regarding `COc1cc2ccc1OCc1cccc(n1)COc1ccc(cc1OC)C=NCCNCCNCCN=C2`, the TGI in the test on SNB-19 CNS, in the test with COLO 205 colon, in the test on MCF7 breast, with MDA-MB-435, in the test on LOX IMVI melanoma and with OVCAR-5 ovarian was more than 100 µM throughout. Besides, the TGI in the test on SF-539 CNS, in the test on CCRF-CEM leukemia and with BT-549 breast was more than 100 µM in each case.
As to `COc1ccc2c3c1OC1C34CCN(C)C(C2)C4=CC(I)C1(OC)OC` (stereo unspecified), the TGI in the test on SNB-19 CNS amounted to 30.5 µM; in the test on COLO 205 colon it was 28.7 µM; in the test on MCF7 breast, 19 µM; in the test on MDA-MB-435, 15.5 µM; with LOX IMVI melanoma it was 23.9 µM; in the test on OVCAR-5 ovarian, 38.4 µM. In addition, the values for the TGI with SF-539 CNS, with CCRF-CEM leukemia and in the test on BT-549 breast were 40.6 µM, 5.87 µM and 36.2 µM, respectively.
Turning to `CC[P+]1(c2ccccc2)[C@@H](C)CC[C@@H]1C`, the TGI in the test with SNB-19 CNS, with COLO 205 colon, in the test with MCF7 breast, in the test with MDA-MB-435, with LOX IMVI melanoma and with OVCAR-5 ovarian was more than 100 µM each time. In addition, the TGI with SF-539 CNS, with CCRF-CEM leukemia and with BT-549 breast was more than 100 µM in each case.
Regarding `C#CC1(O)CCC2[C@@H]3CCc4cc(Oc5nc(F)nc(-c6c7ccccc7cn6C)n5)ccc4C3CC[C@@]21C` (stereo partly specified), the TGI with SNB-19 CNS, with SNB-78 CNS, in the test on COLO 205 colon, with LOX IMVI melanoma, in the test on OVCAR-5 ovarian and with DMS 273 small cell lung was more than 100 µM in each case. Besides, the TGI in the test on SF-539 CNS is more than 100 µM; in the test with CCRF-CEM leukemia it was more than 67 µM.

Source of the values: PubChem BioAssay (NCI).
